Experimental data from PMC12530851, “Design, synthesis, and apoptotic antiproliferative activity of novel dihydropyrimidine-5-carbonitrile/1,2,4-oxadiazole hybrids as dual EGFR/VEGFR-2 inhibitors endowed with antioxidant activity” (RSC Advances, 2025).

Tests used:
Bcl-2 = Bcl-2 level assay in MCF-7 cells; assay type: cell-based, human; details: for Bcl-2 Fold reduction: vs untreated control
Protocol: (§1) Compounds10k and 10l were tested as caspases-3, 8, 9, Bax and p53 activators and as down-regulators of the anti-apoptotic protein Bcl2 against the MCF-7 breast cancer cell line.[41] Appendix A gives more details.
(§2) The Bcl-2 protein family, which includes pro-apoptotic proteins (Bax) and anti-apoptotic proteins (Bcl-2), primarily regulates apoptosis.[46] […] Consequently, we assessed the expression levels of Bcl-2 and Bax proteins in MCF-7 breast cancer cells treated with compounds 10k and 10l, Table 6. […]
4.2.8. Bcl-2 inhibition assay
Mix all the reagents thoroughly without foaming before use. Wash the microwells twice with approximately 300 μL Wash Buffer per well with thorough aspiration of microwell contents between washes. Take caution not to scratch the surface of the microwells. After the last wash, empty the wells and tap microwell strips on absorbent pad or paper towel to remove excess Wash Buffer. Use the microwell strips immediately after washing or place upside down on a wet absorbent paper for not longer than 15 minutes. […] Add 100 μL of Sample […]
Diluent in duplicate to all standard wells and to the blank wells. Prepare standard (1:2 dilution) in duplicate ranging from 32 ng/mL to 0.5 ng/mL. Add 100 μL of Sample Diluent, in duplicate, to the blank wells. Add 80 μL of Sample Diluent, in duplicate, to the sample wells. Add 20 μL of each Sample, in duplicate, to the designated wells. Add 50 μL of diluted biotin-conjugate to all wells, including the blank wells. Cover with a plate cover and incubate at room temperature, on a microplate shaker at 100 rpm if available, for 2 hours. Remove plate cover and empty the wells.
Wash microwell strips 3 times as described in step 2. Add 100 μL of diluted Streptavidin-HRP to all wells, including the blank wells. Cover with a plate cover and incubate at room temperature, on a microplate shaker at 100 rpm if available, for 1 hour. Remove the plate cover and empty the wells. Wash microwell strips 3 times as described in step 2. Proceed to the next step. Pipette 100 μl of mixed TMB Substrate Solution to all wells, including the blanks. […] The point, at which the substrate reaction is stopped, is often determined by the ELISA reader. Many ELISA readers record absorbance only up to 2.0
O.D. Therefore, the color development within individual microwells must be watched by the person running the assay and the substrate reaction stopped before positive wells are no longer properly detectable. […] Results must be read immediately after the Stop Solution is added or within one hour if the microwell strips are stored at 2 - 8°C in the dark. Read the absorbance of each microwell on a spectrophotometer using 450 nm as the primary wavelength.

Bax = Bax activation assay in MCF-7 cells; assay type: cell-based, human; details: for Bax Fold change: vs untreated control
Protocol: as §1, §2
Cells were obtained from American Type Culture Collection, cells were grown in RPMI 1640 containing 10% fetal bovine serum at 37°C, stimulated with the compounds to be tested for caspase 8/9, and lysed with Cell Extraction Buffer. This lysate was diluted in Standard Diluent Buffer over the range of the assay and measured for human active caspase-8/9 content. (Cells are Plated in a density of 1.2 – 1.8 × 10,000 cells/well in a volume of 100µl complete growth medium + 100 ul of the tested compound per well in a 96-well plate for 24 hours before the enzyme assay). […]
4.2.7. Bax activation assay
Bring all reagents, except the human Bax-α Standard, to room temperature for at least 30 minutes prior to opening. The human Bax-α Standard solution should not be left at room temperature for more than 10 minutes. All standards, controls and samples should be run in duplicate. Refer to the Assay Layout Sheet to determine the number of wells to be used and put any remaining wells with the desiccant back into the pouch and seal the ziploc. Store unused wells at 4 °C. Pipet 100 μL of Assay Buffer into the S0 (0 pg/mL standard) wells. Pipet 100 μL of Standards #1 through #6 into the appropriate wells. Pipet 100 μL of the Samples into the appropriate wells. Tap the plate gently to mix the contents. Seal the plate and incubate at room temperature on a plate shaker for 1 hour at ~500 rpm. Empty the contents of the wells and wash by adding 400 μL of wash solution to every well. Repeat the wash 4 more times for a total of 5 washes. After the final wash, empty or aspirate the wells and firmly tap the plate on a lint free paper towel to remove any remaining wash buffer.
Pipet 100 μL of yellow Antibody into each well, except the Blank. Seal the plate and incubate at room temperature on a plate shaker for 1 hour at ~500 rpm. Empty the contents of the wells and wash by adding 400 μL of wash solution to every well. Repeat the wash 4 more times for a total of 5 washes. […]
Pipet 100 μL of Substrate Solution into each well. […] Blank the plate reader against the Blank wells, read the optical density at 450 nm. […]
The concentration of Bax in the unknowns can be determined by interpolation. […]

Compound | Bcl-2 (Bcl-2) [ng/mL] | Bcl-2 Fold reduction (Bcl-2) [fold] | Bax (Bax) [pg/mL] | Bax Fold change (Bax) [fold]
COc1ccc(-c2nc(SCc3nc(-c4ccc(Cl)cc4)no3)[nH]c(=O)c2C#N)cc1 [Compound 10k, 2-(((3-(4-Chlorophenyl)-1,2,4-oxadiazol-5-yl)methyl)thio)-4-(4-methoxyphenyl)-6-oxo-1,6-dihydropyrimidine-5-carbonitrile] | 1.20 ± 0.001 | 4 | 545 ± 3 | 9
COc1ccc(-c2noc(CSc3nc(-c4ccc(OC)cc4)c(C#N)c(=O)[nH]3)n2)cc1 [Compound 10l, 2-(((3-(4-Methoxyphenyl)-1,2,4-oxadiazol-5-yl)methyl)thio)-4-(4-methoxyphenyl)-6-oxo-1,6-dihydropyrimidine-5-carbonitrile] | 1.50 ± 0.001 | 3 | 505 ± 3 | 8
